Laboratory results as given in ChEMBL document CHEMBL3994622, “Design and synthesis of new RAF kinase-inhibiting antiproliferative quinoline derivatives. Part 2: Diarylurea derivatives” (Eur J Med Chem, 2017).

Assays:
LOX IMVI [1] = experiment: Growth inhibition of human LOXIMVI cells assessed as cell growth at 3 uM incubated for 48 hrs by sulforhodamine B assay relative to control; format: functional; conditions: read-out: Activity
[2] = biological target: Dual specificity mitogen-activated protein kinase kinase 1 (Homo sapiens) (UniProt Q02750); experiment: Inhibition of human MEK1 at 10 uM using ERK2 as substrate in presence of [33P]ATP by Hotspot assay relative to control
LOX IMVI [3] = experiment: Growth inhibition of human LOXIMVI cells assessed as cell growth at 0.3 uM incubated for 48 hrs by sulforhodamine B assay relative to control; format: functional; conditions: read-out: Activity
LOX IMVI [4] = experiment: Growth inhibition of human LOXIMVI cells assessed as cell growth at 0.03 uM incubated for 48 hrs by sulforhodamine B assay relative to control; format: functional; conditions: read-out: Activity
MDA-MB-468 [5] = experiment: Growth inhibition of human MDA-MB-468 cells assessed as cell growth at 3 uM incubated for 48 hrs by sulforhodamine B assay relative to control; format: functional; conditions: MDA-MB-468, 48 h, read-out: Activity
MDA-MB-468 [6] = experiment: Growth inhibition of human MDA-MB-468 cells assessed as cell growth at 0.3 uM incubated for 48 hrs by sulforhodamine B assay relative to control; format: functional; conditions: MDA-MB-468, 48 h, read-out: Activity
OVCAR-8 [7] = experiment: Growth inhibition of human OVCAR8 cells assessed as cell growth at 0.5 uM incubated for 48 hrs by sulforhodamine B assay relative to control; format: functional; conditions: OVCAR-8, 48 h, read-out: Activity
HL-60(TB) = experiment: Growth inhibition of human HL-60(TB) cells assessed as cell growth at 5 uM incubated for 48 hrs by sulforhodamine B assay relative to control; format: functional; conditions: HL-60, 48 h, read-out: Activity
SNB-75 [8] = experiment: Growth inhibition of human SNB75 cells assessed as cell growth at 5 uM incubated for 48 hrs by sulforhodamine B assay relative to control; format: functional; conditions: SNB-75, 48 h, read-out: Activity
HOP-92 = experiment: Growth inhibition of human HOP92 cells assessed as cell growth at 50 uM incubated for 48 hrs by sulforhodamine B assay relative to control; format: functional; conditions: HOP-92, 48 h, read-out: Activity
CAKI-1 [9] = experiment: Growth inhibition of human Caki1 cells assessed as cell growth at 50 uM incubated for 48 hrs by sulforhodamine B assay relative to control; format: functional; conditions: CAKI-1, 48 h, read-out: Activity
IGROV-1 = experiment: Growth inhibition of human IGROV1 cells assessed as cell growth at 0.5 uM incubated for 48 hrs by sulforhodamine B assay relative to control; format: functional; conditions: IGROV-1, 48 h, read-out: Activity
Malme-3M = experiment: Growth inhibition of human MALME-3M cells assessed as cell growth at 50 uM incubated for 48 hrs by sulforhodamine B assay relative to control; format: functional; conditions: read-out: Activity
M14 = experiment: Growth inhibition of human M14 cells assessed as cell growth at 0.005 uM incubated for 48 hrs by sulforhodamine B assay relative to control; format: functional; conditions: M14, 48 h, read-out: Activity
SNB-75 [10] = experiment: Growth inhibition of human SNB75 cells assessed as cell growth at 0.05 uM incubated for 48 hrs by sulforhodamine B assay relative to control; format: functional; conditions: SNB-75, 48 h, read-out: Activity
HCC 2998 = experiment: Growth inhibition of human HCC2998 cells assessed as cell growth at 0.05 uM incubated for 48 hrs by sulforhodamine B assay relative to control; format: functional; conditions: HCC 2998, 48 h, read-out: Activity
KM12 [11] = experiment: Growth inhibition of human KM12 cells assessed as cell growth at 0.05 uM incubated for 48 hrs by sulforhodamine B assay relative to control; format: functional; conditions: KM12, 48 h, read-out: Activity
LOX IMVI [12] = experiment: Growth inhibition of human LOXIMVI cells assessed as cell growth at 0.005 uM incubated for 48 hrs by sulforhodamine B assay relative to control; format: functional; conditions: read-out: Activity
MDA-MB-231 = experiment: Growth inhibition of human MDA-MB-231 cells assessed as cell growth at 0.5 uM incubated for 48 hrs by sulforhodamine B assay relative to control; format: functional; conditions: MDA-MB-231, 48 h, read-out: Activity
CAKI-1 [13] = experiment: Growth inhibition of human Caki1 cells assessed as cell growth at 0.5 uM incubated for 48 hrs by sulforhodamine B assay relative to control; format: functional; conditions: CAKI-1, 48 h, read-out: Activity
OVCAR-8 [14] = experiment: Growth inhibition of human OVCAR8 cells assessed as cell growth at 5 uM incubated for 48 hrs by sulforhodamine B assay relative to control; format: functional; conditions: OVCAR-8, 48 h, read-out: Activity
HCT-116 = experiment: Growth inhibition of human HCT116 cells assessed as cell growth at 5 uM incubated for 48 hrs by sulforhodamine B assay relative to control; format: functional; conditions: HCT-116, 48 h, read-out: Activity
SK-MEL-28 = experiment: Growth inhibition of human SK-MEL-28 cells assessed as cell growth at 0.05 uM incubated for 48 hrs by sulforhodamine B assay relative to control; format: functional; conditions: SK-MEL-28, 48 h, read-out: Activity
KM12 [15] = experiment: Growth inhibition of human KM12 cells assessed as cell growth at 5 uM incubated for 48 hrs by sulforhodamine B assay relative to control; format: functional; conditions: KM12, 48 h, read-out: Activity
SK-MEL-5 = experiment: Growth inhibition of human SK-MEL-5 cells assessed as cell growth at 0.05 uM incubated for 48 hrs by sulforhodamine B assay relative to control; format: functional; conditions: SK-MEL-5, 48 h, read-out: Activity
SNB-19 = experiment: Growth inhibition of human SNB19 cells assessed as cell growth at 5 uM incubated for 48 hrs by sulforhodamine B assay relative to control; format: functional; conditions: SNB-19, 48 h, read-out: Activity
K562 = experiment: Growth inhibition of human K562 cells assessed as cell growth at 0.05 uM incubated for 48 hrs by sulforhodamine B assay relative to control; format: functional; conditions: K562, 48 h, read-out: Activity
Hs-578T = experiment: Growth inhibition of human Hs 578T cells assessed as cell growth at 50 uM incubated for 48 hrs by sulforhodamine B assay relative to control; format: functional; conditions: read-out: Activity
OVCAR-8 [16] = experiment: Growth inhibition of human OVCAR8 cells assessed as cell growth at 0.005 uM incubated for 48 hrs by sulforhodamine B assay relative to control; format: functional; conditions: OVCAR-8, 48 h, read-out: Activity
SK-MEL-2 = experiment: Growth inhibition of human SK-MEL-2 cells assessed as cell growth at 50 uM incubated for 48 hrs by sulforhodamine B assay relative to control; format: functional; conditions: SK-MEL-2, 48 h, read-out: Activity
UACC-257 = experiment: Growth inhibition of human UACC257 cells assessed as cell growth at 0.5 uM incubated for 48 hrs by sulforhodamine B assay relative to control; format: functional; conditions: UACC-257, 48 h, read-out: Activity
HOP-62 = experiment: Growth inhibition of human HOP62 cells assessed as cell growth at 0.05 uM incubated for 48 hrs by sulforhodamine B assay relative to control; format: functional; conditions: HOP-62, 48 h, read-out: Activity
SK-OV-3 = experiment: Growth inhibition of human SKOV3 cells assessed as cell growth at 0.5 uM incubated for 48 hrs by sulforhodamine B assay relative to control; format: functional; conditions: SK-OV-3, 48 h, read-out: Activity
CAKI-1 [17] = experiment: Growth inhibition of human Caki1 cells assessed as cell growth at 5 uM incubated for 48 hrs by sulforhodamine B assay relative to control; format: functional; conditions: CAKI-1, 48 h, read-out: Activity
CAKI-1 [18] = experiment: Growth inhibition of human Caki1 cells assessed as cell growth at 0.005 uM incubated for 48 hrs by sulforhodamine B assay relative to control; format: functional; conditions: CAKI-1, 48 h, read-out: Activity

Sequence of Dual specificity mitogen-activated protein kinase kinase 1 (Homo sapiens) (Q02750 whole entry): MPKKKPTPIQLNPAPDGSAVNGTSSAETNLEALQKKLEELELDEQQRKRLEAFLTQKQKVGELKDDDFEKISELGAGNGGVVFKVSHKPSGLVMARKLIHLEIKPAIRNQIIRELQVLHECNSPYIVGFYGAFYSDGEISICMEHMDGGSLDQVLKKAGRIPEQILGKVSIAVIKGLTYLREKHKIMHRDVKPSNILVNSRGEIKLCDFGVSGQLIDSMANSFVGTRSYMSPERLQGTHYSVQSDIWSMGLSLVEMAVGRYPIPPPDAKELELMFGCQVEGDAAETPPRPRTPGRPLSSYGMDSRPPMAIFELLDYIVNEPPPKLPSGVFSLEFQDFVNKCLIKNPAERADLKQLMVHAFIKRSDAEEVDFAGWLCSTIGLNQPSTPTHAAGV

## COc1cc2cc(Oc3ccc(NC(=O)Nc4ccc(Cl)c(C(F)(F)F)c4)cc3)c(C)nc2cc1OC
LOX IMVI [1]
  growth at 3 µM: 12%
[2]
  inhibition: -0.258%
LOX IMVI [3]
  growth at 0.3 µM: 101%
LOX IMVI [4]
  growth at 0.03 µM: 99%

## Cc1nc2cc(O)c(O)cc2cc1Oc1ccc(NC(=O)Nc2ccc(Cl)c(Cl)c2)cc1
MDA-MB-468 [5]
  growth at 3 µM: 92%
MDA-MB-468 [6]
  growth at 0.3 µM: 99%

## COc1cc2cc(Oc3ccc(NC(=O)Nc4cccc(C(F)(F)F)c4)cc3)c(C)nc2cc1OC
OVCAR-8 [7]
  growth at 0.5 µM: 96%
HL-60(TB)
  growth at 5 µM: -13%
SNB-75 [8]
  growth at 5 µM: 5%
HOP-92
  growth at 50 µM: -74%
CAKI-1 [9]
  growth at 50 µM: -51%
IGROV-1
  growth at 0.5 µM: 113%
Malme-3M
  growth at 50 µM: -60%
M14
  growth at 0.005 µM: 98%
SNB-75 [10]
  growth at 0.05 µM: 99%
HCC 2998
  growth at 0.05 µM: 105%
KM12 [11]
  growth at 0.05 µM: 89%
LOX IMVI [12]
  growth at 0.005 µM: 98%
MDA-MB-231
  growth at 0.5 µM: 81%
CAKI-1 [13]
  growth at 0.5 µM: 91%
OVCAR-8 [14]
  growth at 5 µM: 10%
HCT-116
  growth at 5 µM: 6%
SK-MEL-28
  growth at 0.05 µM: 98%
KM12 [15]
  growth at 5 µM: 5%
SK-MEL-5
  growth at 0.05 µM: 92%
SNB-19
  growth at 5 µM: 24%
K562
  growth at 0.05 µM: 99%
Hs-578T
  growth at 50 µM: -41%
OVCAR-8 [16]
  growth at 0.005 µM: 101%
SK-MEL-2
  growth at 50 µM: -87%
UACC-257
  growth at 0.5 µM: 82%
HOP-62
  growth at 0.05 µM: 95%
SK-OV-3
  growth at 0.5 µM: 101%
CAKI-1 [17]
  growth at 5 µM: -7%
CAKI-1 [18]
  growth at 0.005 µM: 98%
